Assay results reported in patent US20260345619A1 (Principia Biopharma Inc., priority 2023, published 2026).

Test: Loss of asthma control (LOAC) events, 12-week ICS/LABA withdrawal study
Type: in vivo, human
Excerpt: The general construct of this 12-week Loss of Asthma Control (LOAC) study consisted of a 4-week standardized ICS/LABA background therapy stabilization phase, a 4or 5-week background therapy withdrawal phase and a 3- or 4-week no background therapy phase, followed by a 4-week post IMP treatment safety follow-up period at the beginning of which, pre-screening asthma controller medications are restarted. Participants had access to short-acting β-agonist (SABA) reliever medication at all times during the protocol.
The primary endpoint was the proportion of patients with LOAC. The key secondary endpoint for the study was change in pre-bronchodilator FEV1 from baseline at EOT.
The primary endpoint was proportion of participants with LOAC during the 12-week treatment period.
Note that if the number of participants in some regions was too low, these regions may have been pooled with other regions. This strategy also applied to all the rest of the analyses where region was one of the covariates.
To assess the consistency in treatment effects across different subgroup levels, subgroup analyses were to be performed for the primary efficacy endpoint with respect to age group, gender, region, and other factors.
Secondary endpoints included pre-bronchodilator FEV1 change from baseline at EOT, ACQ-5 score change from baseline, and AQLQ score change from baseline. Other secondary and exploratory endpoints are described in Table 2.

[1] = 400 mg BID cohort, Latin America, n = 25
[2] = 400 mg BID cohort, N = 32, mITT
[3] = 400 mg BID cohort, age <45 years, n = 12
[4] = 400 mg BID cohort, age ≥45 years, n = 20
[5] = 400 mg BID cohort, baseline BMI <25 kg/m^2, n = 8
[6] = 400 mg BID cohort, baseline BMI ≥25-<30 kg/m^2, n = 16
[7] = 400 mg BID cohort, baseline BMI ≥30 kg/m^2, n = 8
[8] = 400 mg BID cohort, baseline weight ≥60-<90 kg, n = 23
[9] = 400 mg BID cohort, female, n = 18
[10] = 400 mg BID cohort, male, n = 14
[11] = 400 mg BID, N=32, 12 weeks, mITT
[12] = 400 mg BID, 1 exacerbation within 2 years
[13] = 400 mg BID, 2 exacerbations within 2 years
[14] = 400 mg BID, >2 exacerbations within 2 years
[15] = 400 mg BID, FEV1 reversibility <12 %
[16] = 400 mg BID, FEV1 reversibility ≥12 %
[17] = 400 mg BID, age at onset <12 years
[18] = 400 mg BID, age at onset <18 years
[19] = 400 mg BID, age at onset ≥12-<18 years
[20] = 400 mg BID, age at onset ≥18-<40 years

Compound: CC(C)(C=C(C#N)C(=O)N1CCC[C@@H](n2nc(-c3ccc(Oc4ccccc4)cc3F)c3c(N)ncnc32)C1)N1CCN(C2COC2)CC1 (mixture of isomers) [rilzabrutinib, (R)-2-[3-[4-amino-3-(2-fluoro-4-phenoxy-phenyl)pyrazolo[3,4-d]pyrimidin-1-yl]piperidine-1-carbonyl]-4-methyl-4-[4-(oxetan-3-yl)piperazin-1-yl]pent-2-enenitrile]
- LOAC incidence, number of participants (400 mg BID cohort, APAC, n = 2): 2
- LOAC incidence, percentage (400 mg BID cohort, APAC, n = 2): (100)
- LOAC incidence, number of participants (400 mg BID cohort, Eastern Europe, n = 3): 1
- LOAC OR vs. placebo (400 mg BID cohort, Eastern Europe, 95% CI (0.023, 11.088)): 0.500
- LOAC RD vs. placebo (400 mg BID cohort, Eastern Europe, 95% CI (−0.891, 0.558)): −0.167
- LOAC incidence, number of participants [1]: 9
- LOAC incidence, percentage [1]: (36.0)
- LOAC OR vs. placebo (400 mg BID cohort, Latin America, 95% CI (0.230, 2.230)): 0.716
- LOAC RD vs. placebo (400 mg BID cohort, Latin America, 95% CI (−0.351, 0.191)): −0.080
- Intervention discontinuation due to lack of efficacy or an AE related to asthma worsening, number [2]: 0
- Number of participants requiring hospitalization or emergency room visit [2]: 0
- Number of participants with LOAC: No [2]: 20
- Number of participants with LOAC: Yes [2]: 12
- Number of participants with increase in ICS ≥4 times the last prescribed ICS dose (or ≥50% of the prescribed ICS dose at baseline if background therapy withdrawal completed) [2]: 1
- Number of participants with ≥6 additional reliever puffs of salbutamol/albuterol or levosalbutamol/levalbuterol in a 24 hour period (compared with baseline) on 2 consecutive days [2]: 2
- Number of participants with ≥30% reduction from baseline in AM PEF on 2 consecutive days [2]: 6
- Participants with LOAC not triggered by use of rescue medication, number [2]: 6
- Participants with LOAC not triggered by use of rescue medication, percentage [2]: (18.8)
- Participants with LOAC triggered by use of rescue medication, number [2]: 6
- Participants with LOAC triggered by use of rescue medication, percentage [2]: (18.8)
- Percentage of participants with LOAC: No [2]: (62.5)
- Percentage of participants with LOAC: Yes [2]: (37.5)
- Percentage of participants with increase in ICS ≥4 times the last prescribed ICS dose (or ≥50% of the prescribed ICS dose at baseline if background therapy withdrawal completed) [2]: (3.1)
- Percentage of participants with ≥6 additional reliever puffs of salbutamol/albuterol or levosalbutamol/levalbuterol in a 24 hour period (compared with baseline) on 2 consecutive days [2]: (6.3)
- Percentage of participants with ≥30% reduction from baseline in AM PEF on 2 consecutive days [2]: (18.8)
- LOAC incidence, number of participants (400 mg BID cohort, Western Countries, n = 2): 0
- LOAC incidence, number of participants [3]: 6
- LOAC incidence, percentage [3]: (50.0)
- LOAC OR vs. placebo (400 mg BID cohort, age <45 years, 95% CI (0.342, 18.129)): 2.489
- LOAC RD vs. placebo (400 mg BID cohort, age <45 years, 95% CI (−0.266, 0.634)): 0.184
- LOAC incidence, number of participants [4]: 6
- LOAC incidence, percentage [4]: (30.0)
- LOAC OR vs. placebo (400 mg BID cohort, age ≥45 years, 95% CI (0.069, 1.023)): 0.266
- LOAC RD vs. placebo (400 mg BID cohort, age ≥45 years, 95% CI (−0.583, −0.007)): −0.295
- LOAC incidence, number of participants [5]: 3
- LOAC incidence, percentage [5]: (37.5)
- LOAC OR vs. placebo (400 mg BID cohort, baseline BMI <25 kg/m^2, 95% CI (0.033, 2.763)): 0.300
- LOAC RD vs. placebo (400 mg BID cohort, baseline BMI <25 kg/m^2, 95% CI (−0.796, 0.213)): −0.292
- LOAC incidence, number of participants [6]: 6
- LOAC incidence, percentage [6]: (37.5)
- LOAC OR vs. placebo (400 mg BID cohort, baseline BMI ≥25-<30 kg/m^2, 95% CI (0.168, 2.709)): 0.675
- LOAC RD vs. placebo (400 mg BID cohort, baseline BMI ≥25-<30 kg/m^2, 95% CI (−0.431, 0.240)): −0.096
- LOAC incidence, number of participants [7]: 3
- LOAC incidence, percentage [7]: (37.5)
- LOAC OR vs. placebo (400 mg BID cohort, baseline BMI ≥30 kg/m^2, 95% CI (0.107, 5.238)): 0.750
- LOAC RD vs. placebo (400 mg BID cohort, baseline BMI ≥30 kg/m^2, 95% CI (−0.536, 0.397)): −0.069
- LOAC incidence, number of participants (400 mg BID cohort, baseline weight <60 kg, n = 3): 0
- LOAC incidence, number of participants [8]: 10
- LOAC incidence, percentage [8]: (43.5)
- LOAC OR vs. placebo (400 mg BID cohort, baseline weight ≥60-<90 kg, 95% CI (0.366, 3.640)): 1.154
- LOAC RD vs. placebo (400 mg BID cohort, baseline weight ≥60-<90 kg, 95% CI (−0.244, 0.314)): 0.035
- LOAC incidence, number of participants (400 mg BID cohort, baseline weight ≥90 kg, n = 6): 2
- LOAC OR vs. placebo (400 mg BID cohort, baseline weight ≥90 kg, 95% CI (0.013, 4.729)): 0.250
- LOAC RD vs. placebo (400 mg BID cohort, baseline weight ≥90 kg, 95% CI (−0.987, 0.320)): −0.333
- LOAC incidence, number of participants [9]: 7
- LOAC incidence, percentage [9]: (38.9)
- LOAC OR vs. placebo (400 mg BID cohort, female, 95% CI (0.076, 1.263)): 0.311
- LOAC RD vs. placebo (400 mg BID cohort, female, 95% CI (−0.560, 0.045)): −0.258
- LOAC incidence, number of participants [10]: 5
- LOAC incidence, percentage [10]: (35.7)
- LOAC OR vs. placebo (400 mg BID cohort, male, 95% CI (0.173, 24.590)): 2.062
- LOAC RD vs. placebo (400 mg BID cohort, male, 95% CI (−0.420, 0.931)): 0.256
- participants without LOAC, number [11]: 20
- participants without LOAC, percent [11]: (62.5)
- participants with LOAC, number (400 mg BID, N=32, 12 weeks, mITT, placebo 16): 12
- RRR vs. placebo (%), LOAC (400 mg BID, mITT): 24.4%
- RR vs. placebo, LOAC (400 mg BID, mITT, 95% CI 0.433, 1.319): 0.756
- RD (risk difference) vs. placebo, LOAC (400 mg BID, mITT, 95% CI −0.361, 0.115): −0.123
- OR vs. placebo [12]: 1.218
- RD vs. Placebo [12]: 0.059
- LOAC, number [13]: 4
- OR vs. placebo [13]: 0.471
- RD vs. Placebo [13]: −0.199
- LOAC, number [14]: 3
- OR vs. placebo [14]: 0.508
- OR vs. placebo [15]: 0.611
- RD vs. Placebo [15]: −0.119
- LOAC, number [16]: 6
- OR vs. placebo [16]: 0.533
- RD vs. Placebo [16]: −0.156
- LOAC, number [17]: 4
- OR vs. placebo [17]: 2.000
- RD vs. Placebo [17]: 0.159
- OR vs. placebo [18]: 1.402
- RD vs. Placebo [18]: 0.126
- LOAC, number [19]: 1
- OR vs. placebo [19]: 0.250
- RD vs. Placebo [19]: −0.300
- LOAC, number [20]: 4
- OR vs. placebo [20]: 0.267
